According to ChEMBL document CHEMBL1141757, “Structural revision of aspernigrin A, reisolated from Cladosporium herbarum IFB-E002” (J Nat Prod, 2005):

Assays:
[1] = molecular target: Xanthine dehydrogenase/oxidase (Homo sapiens, UniProt P47989); test: Inhibition of xanthine oxidase
[2] = Cytotoxicity against human SW1116 cells; assay type: functional, cell-based; conditions: SW 1116

Xanthine dehydrogenase/oxidase, sequence (P47989 whole entry): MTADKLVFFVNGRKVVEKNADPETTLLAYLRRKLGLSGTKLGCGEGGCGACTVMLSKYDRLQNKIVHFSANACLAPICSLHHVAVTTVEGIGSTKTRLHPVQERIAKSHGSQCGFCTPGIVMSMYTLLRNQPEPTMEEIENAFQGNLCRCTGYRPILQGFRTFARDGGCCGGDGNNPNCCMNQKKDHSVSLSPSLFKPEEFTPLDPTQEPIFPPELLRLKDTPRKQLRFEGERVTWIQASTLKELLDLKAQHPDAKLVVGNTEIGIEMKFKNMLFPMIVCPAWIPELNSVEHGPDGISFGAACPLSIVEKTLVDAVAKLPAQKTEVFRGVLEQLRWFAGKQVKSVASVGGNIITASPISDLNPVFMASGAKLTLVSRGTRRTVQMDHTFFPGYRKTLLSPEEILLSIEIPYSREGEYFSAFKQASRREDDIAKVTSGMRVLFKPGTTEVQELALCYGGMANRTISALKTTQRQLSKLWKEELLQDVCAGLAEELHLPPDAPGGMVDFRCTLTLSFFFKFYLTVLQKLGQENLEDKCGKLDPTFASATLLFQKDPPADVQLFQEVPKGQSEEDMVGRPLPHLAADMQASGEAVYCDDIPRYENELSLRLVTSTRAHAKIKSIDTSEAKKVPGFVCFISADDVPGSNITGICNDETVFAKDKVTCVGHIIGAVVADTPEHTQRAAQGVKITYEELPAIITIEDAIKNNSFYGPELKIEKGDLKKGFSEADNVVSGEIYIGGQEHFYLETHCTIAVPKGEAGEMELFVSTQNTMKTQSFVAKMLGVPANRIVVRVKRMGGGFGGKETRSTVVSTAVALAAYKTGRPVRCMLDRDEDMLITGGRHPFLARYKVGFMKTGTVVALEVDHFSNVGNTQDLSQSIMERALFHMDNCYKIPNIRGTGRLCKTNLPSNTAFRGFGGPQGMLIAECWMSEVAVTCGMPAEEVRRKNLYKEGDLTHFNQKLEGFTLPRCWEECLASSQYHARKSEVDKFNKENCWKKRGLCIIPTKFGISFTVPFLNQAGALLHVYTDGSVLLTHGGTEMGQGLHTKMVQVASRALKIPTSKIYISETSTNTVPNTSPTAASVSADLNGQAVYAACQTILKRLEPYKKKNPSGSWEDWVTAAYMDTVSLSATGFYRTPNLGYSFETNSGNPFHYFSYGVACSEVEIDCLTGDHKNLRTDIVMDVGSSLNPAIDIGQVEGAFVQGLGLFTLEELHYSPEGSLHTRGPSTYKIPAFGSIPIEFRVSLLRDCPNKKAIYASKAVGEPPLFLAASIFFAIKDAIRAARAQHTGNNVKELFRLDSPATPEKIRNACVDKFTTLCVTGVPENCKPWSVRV

With `COc1cc(OC)c2c(O)c3c(=O)cc(C)oc3c(-c3c(OC)cc4cc(O)c5c(=O)cc(C)oc5c4c3OC)c2c1` [FONSECINONE A] as the molecule, how does the IC50 [1] read?
The IC50 was 19.5 µM.

For `COc1cc(OC)c2c(O)c3c(=O)cc(C)oc3cc2c1` [RUBROFUSARIN B], which IC50 [2] is on record?
Its IC50 is 15.7 µM.

And the IC50 [1]?
The IC50 was 16.8 µM.
